Assay results reported in ChEMBL document CHEMBL3352394, “Acinetobacter baumannii OxPhos inhibitors as selective anti-infective agents” (Bioorg Med Chem Lett, 2015).
Converted amounts (≈) assume the structure as drawn. The source made the active and inactive calls. No cut-off for these calls is given here.

Experiments:
[1] = Inhibition of Electron transport protein complex-dependent oxidative phosphorylation system-mediated ATP synthesis in Acinetobacter baumannii membranes; type: cell membranes
[2] = Cytotoxicity against mouse NIH/3T3 cells after 1 hr by MTS reduction assay in absence of serum; type: cell-based; conditions: NIH3T3, 1 h
HepG2 = test: Cytotoxicity against human HepG2 cells after 1 hr by MTS reduction assay in absence of serum; type: cell-based; conditions: HepG2, 1 h
Acinetobacter baumannii [3] = test: Antimicrobial activity against Acinetobacter baumannii; type: functional
[4] = Inhibition of Electron transport protein complex-dependent oxidative phosphorylation system-mediated ATP synthesis in bovine heart submitochondrial particle; parameters: species or system Bos taurus
[5] = Selectivity ratio of IC50 for oxidative phosphorylation system-mediated ATP synthesis in bovine heart submitochondrial particle to IC50 for oxidative phosphorylation system-mediated ATP synthesis in Acinetobacter baumannii membranes; type: cell membranes
Acinetobacter baumannii [6] = test: Bactericidal activity against Acinetobacter baumannii at 8 times IC50 by time-kill assay; type: functional, organism-based
[7] = Half life in mouse liver microsomes; type: ADME
Acinetobacter baumannii [8] = test: Inhibition of NDH1-mediated O2 consumption in Acinetobacter baumannii membranes at 50 uM in presence of NADH; type: cell membranes
Klebsiella pneumoniae [9] = test: Antimicrobial activity against Klebsiella pneumoniae ATCC 13883 in presence of 40% serum; type: functional
Pseudomonas aeruginosa = test: Antimicrobial activity against Pseudomonas aeruginosa ATCC 10145; type: functional
Acinetobacter baumannii [10] = test: Antimicrobial activity against Acinetobacter baumannii BAA-1606; type: functional
Acinetobacter baumannii [11] = test: Inhibition of NDH1-mediated O2 consumption in Acinetobacter baumannii membranes at 50 uM in presence of NADH and ascorbate/TMPD; type: cell membranes
Escherichia coli [12] = test: Antimicrobial activity against Escherichia coli ATCC 25922 in presence of 40% serum; type: functional
Acinetobacter baumannii [13] = test: Inhibition of NDH1-mediated O2 consumption in Acinetobacter baumannii membranes at 50 to 100 uM in presence of succinate; type: cell membranes
Klebsiella pneumoniae [14] = test: Antimicrobial activity against Klebsiella pneumoniae ATCC 13883; type: functional
Staphylococcus aureus [15] = test: Antimicrobial activity against methicillin-resistant Staphylococcus aureus USA 300; type: functional
[16] = Half life in human liver microsomes; type: ADME
Acinetobacter baumannii [17] = test: Antimicrobial activity against Acinetobacter baumannii ATCC 17978; type: functional
Escherichia coli [18] = test: Antimicrobial activity against Escherichia coli ATCC 25922; type: functional
Klebsiella pneumoniae [19] = test: Antimicrobial activity against Klebsiella pneumoniae ATCC 4352; type: functional
Staphylococcus aureus [20] = test: Antimicrobial activity against Staphylococcus aureus ATCC 25923; type: functional

Row | Compound | IC50 [1] [µM] | IC50 [2] [µM] | IC50 (HepG2) [µM] | MIC (Acinetobacter baumannii [3]) [µM] | IC50 [4] [µM] | Ratio IC50 [5] | also measured
1 | CCn1c(=N)n(CCCOc2ccc(Cl)cc2Cl)c2ccccc21 | 6.4 | 24 | 96 | 50 (≈ 18.2 µg/mL) | 8.8 | 1.4 | –
2 | N=c1n(CCCOc2ccc(Cl)cc2Cl)c2ccccc2n1CCc1ccccn1 | 3.2 | 36 | 60 | 100 (≈ 44.1 µg/mL) | 6.6 | 2.1 | –
3 | CCN(CC)CCn1c(=N)n(CCOc2ccc(Cl)cc2Cl)c2ccccc21 | 6.9 | – | – | 100 (≈ 42.1 µg/mL) | 18.3 | 2.7 | Activity (Acinetobacter baumannii [6]): Active
4 | CC(C)(C)OC(=O)N1CCC(CCn2c(=N)n(CCCOc3ccc(Cl)cc3Cl)c3ccccc32)CC1 | 1.7 | 25 | 42 | 50 (≈ 27.4 µg/mL) | 1 | 0.6 | –
5 | CCN(CC)CCCNc1nc2ccccc2n1CCCOc1ccc(Cl)cc1Cl | 8 | – | – | 50 (≈ 22.5 µg/mL) | 20 | 2.5 | –
6 | N=c1n(CCCOc2ccc(Cl)cc2Cl)c2ccccc2n1Cc1ccc(C(F)(F)F)nc1.O=C(O)C(F)(F)F | 0.9 | 22 | 35 | 50 | 0.9 | 1 | half-life [7]: > 90 min
7 | N=c1n(CCCOc2ccc(Cl)cc2Cl)c2ccccc2n1CCCc1ccccc1.O=C(O)C(F)(F)F | 2.1 | 36 | 65 | 25 | 2.2 | 1.1 | half-life [7]: 48.2 min
8 | N=c1n(CCCOc2ccc(Cl)cc2Cl)c2ccccc2n1CCN1CCCC1 | 2.1 | 12 | 67 | 13 (≈ 5.63 µg/mL) | 4.9 | 2.3 | –
9 | CCN(CC)C(=O)Cn1c(=N)n(CCCOc2ccc(Cl)cc2Cl)c2ccccc21 | 6 | 68 | 143 | > 100 | 11.4 | 1.9 | –
10 | Cc1noc(C)c1Cn1c(=N)n(CCCOc2ccc(Cl)cc2Cl)c2ccccc21 | 1.9 | 94 | 168 | 100 (≈ 44.5 µg/mL) | 6.1 | 3.2 | –
11 | CCN(CC)CCn1c(=O)n(CC(O)COc2ccc(Cl)cc2Cl)c2ccccc21 (configuration not stated) | 12 | – | – | > 100 | 21 | 1.8 | –
12 | CCCCn1c(=N)n(CCCOc2ccc(Cl)cc2Cl)c2ccccc21 | 3.8 | 28 | 72 | 50 (≈ 19.6 µg/mL) | 1.8 | 0.5 | –
13 | N=c1n(CCCOc2ccc(Cl)cc2Cl)c2ccccc2n1CCCN1CCCCC1 | 3.6 | 37 | 83 | 50 (≈ 23.1 µg/mL) | 22.4 | 6.2 | –
14 | CCN(CC)CCn1c(=N)n(CC(O)COc2ccc(Cl)cc2Cl)c2ccccc21 (configuration not stated) | 1.9 | – | – | 25 (≈ 11.3 µg/mL) | 5.6 | – | Activity (Acinetobacter baumannii [6]): Active; inhibition (Acinetobacter baumannii [8]): Active
15 | N=c1n(CCCOc2ccc(Cl)cc2Cl)c2ccccc2n1CCn1ccnc1 | 18.3 | 61 | 137 | > 100 | 49.7 | 2.7 | –
16 | N=c1n(CCCOc2ccc(Cl)cc2Cl)c2ccccc2n1CCN1CCOCC1 | 9.2 | 76 | 215 | > 100 | 25.5 | 2.8 | –
17 | Br.CCN(CC)CCn1c(=N)n(CCCOc2ccc(Cl)cc2Cl)c2ccccc21 | 0.61 | 20 | 83 | 13 | 2.9 | 3 | MIC (Klebsiella pneumoniae [9]): > 22 µg/mL; Activity (Acinetobacter baumannii [6]): Active; MIC (Pseudomonas aeruginosa): > 22 µg/mL; MIC (Acinetobacter baumannii [10]): 12.5 µg/mL; inhibition (Acinetobacter baumannii [11]): inactive; MIC (Escherichia coli [12]): > 22 µg/mL; half-life [7]: 13 min; inhibition (Acinetobacter baumannii [8]): Active; inhibition (Acinetobacter baumannii [13]): inactive; MIC (Klebsiella pneumoniae [14]): 22 µg/mL; MIC (Staphylococcus aureus [15]): 5 µg/mL; half-life [16]: 9.2 min; MIC (Acinetobacter baumannii [17]): 12.5 µg/mL; MIC (Escherichia coli [18]): 11 µg/mL; MIC (Klebsiella pneumoniae [19]): 5 µg/mL; MIC (Staphylococcus aureus [20]): 11 µg/mL
18 | CCCN(CCC)CCn1c(=N)n(CCCOc2ccc(Cl)cc2Cl)c2ccccc21 | 2.8 | 28 | 49 | 25 (≈ 11.6 µg/mL) | 2.9 | 1 | –
19 | OC(CNCc1nc2ccccc2[nH]1)COc1ccc(Cl)cc1Cl (configuration not stated) | 41 | – | – | > 100 | 106 | 2.6 | –
20 | CCN(CC)CCn1c(N)nc2ccccc21 | 40 | – | – | > 100 | 100 | 2.5 | –
21 | N=c1n(CCCOc2ccc(Cl)cc2Cl)c2ccccc2n1CCN1CCCC1=O | 3.6 | 99 | 63 | > 100 | 3.1 | 0.9 | –
22 | CC(C)N(CCn1c(=N)n(CCCOc2ccc(Cl)cc2Cl)c2ccccc21)C(C)C | 1.7 | 19 | 39 | 13 (≈ 6.02 µg/mL) | 2.5 | 1.5 | –
23 | N=c1n(CCCOc2ccc(Cl)cc2Cl)c2ccccc2n1CC(=O)N1CCN(c2ccccc2)CC1.O=C(O)C(F)(F)F | 1 | 400 | 1300 | > 100 | 0.8 | 0.8 | half-life [7]: 25.2 min
24 | CCN(CC)CCNc1nc2ccccc2n1CC(O)COc1ccc(Cl)cc1Cl (configuration not stated) | 5 | – | – | > 100 | 47 | 9.4 | –
25 | CCN(CC)CCn1c(=N)n(CCCc2ccc(Cl)cc2Cl)c2ccccc21 | 5 | – | – | 25 (≈ 10.5 µg/mL) | 9.4 | 1.9 | Activity (Acinetobacter baumannii [6]): Active
26 | CCOCCOCCn1c(=N)n(CCCOc2ccc(Cl)cc2Cl)c2ccccc21 | 5.6 | 62 | 151 | > 100 | 6 | 1.1 | –
27 | CCN(CC)CCCNc1nc2ccccc2n1CC(O)COc1ccc(Cl)cc1Cl (configuration not stated) | 10 | – | – | > 100 | 13 | 1.3 | –
28 | OC(COc1ccc(Cl)cc1Cl)Cn1c(NCCCN2CCOCC2)nc2ccccc21 (configuration not stated) | 7.8 | – | – | > 100 | 9.6 | 1.2 | –
29 | COLISTIN | – | – | – | – | – | – | MIC90 (Acinetobacter baumannii [3]): 2 µg/mL
30 | Nc1nc2ccccc2n1CCCOc1ccc(Cl)cc1Cl | 0.9 | – | – | 25 (≈ 8.41 µg/mL) | 0.8 | 0.9 | MIC (Acinetobacter baumannii [10]): 6.25 µg/mL (≈ 18.6 µM); MIC (Acinetobacter baumannii [17]): 6.25 µg/mL (≈ 18.6 µM)
